{"source": "patent US20190211102A1", "about": "“METHODS AND COMBINATION THERAPY TO TREAT CANCER” (Array BioPharma Inc., priority 2018, published 2019)", "key": {"[1]": {"test_system": "CSF-1", "experiment": "pharmacodynamic analysis of circulating biomarkers: CSF-1 levels, Part A", "assay_type": "in vivo, human"}, "[2]": {"conditions": "Bendell et al. 2013, cited from earlier work"}, "[3]": {"experiment": "Phase 1b dose escalation (Part A): DLTs, adverse events, RP2D of ARRY-382 with pembrolizumab", "experimental": "DLTs were determined using standard definitions. Adverse events (AEs) and serious AEs were collected to analyze the safety and tolerability of treatment. […] Blood samples for pharmacodynamics analysis of circulating biomarkers, including CSF-1, were collected on days 1, 8, and 15 of cycle 1 and on day 1 of all subsequent cycles."}, "[4]": {"experiment": "plasma pharmacokinetics of ARRY-382, Phase 1b Part A (with pembrolizumab)", "assay_type": "in vivo, human"}, "[5]": {"test_system": "advanced solid tumors", "experiment": "preliminary antitumor activity by RECIST version 1.1 and irRC, Part A", "assay_type": "in vivo, human", "conditions": "ARRY-382 300 mg cohort, with pembrolizumab", "excerpt": "Key eligibility criteria for Part A was adult patients with confirmed diagnosis of: bladder cancer, head and neck squamous cell cancer, ovarian cancer, triple-negative breast cancer, gastric cancer, metastatic colorectal cancer, or pancreatic ductal adenocarcinoma, refractory to standard of car, with no standard therapy available or for which the patient refused standard therapy; advanced, unresectable, or metastatic melanoma with or without prior treatment; or advanced/metastatic PD-L1-positive non-small cell lung cancer (NSCLC) meeting any of the following criteria: (1) tumors without EGFR or ALK genomic aberrations in patients who had received no prior systemic chemotherapy or had disease progression on or after platinum-containing chemotherapy, or (2) tumors with EGFR or ALK genomic aberrations in patients with disease progression on a US Food and Drug Administration-approved therapy for EGFR or ALK genomic tumor aberrations. Patients who received prior immune checkpoint inhibitor treatment were excluded from the study.\nDLTs were determined using standard definitions."}, "[6]": {"conditions": "Part A, ARRY-382 + pembrolizumab"}}, "note": "“Also recorded” adds a separate entry of the source."}
{"smiles": "Cc1cccc(Cn2nc(C3CC3)c3c(NC(=O)c4cnc5cc(OCCN6CCN(C)CC6)ccn45)cccc32)n1", "note": "[ARRY-382, N-(3-cyclopropyl-1-((6-methylpyridin-2-yl)methyl)-1H-indazol-4-yl)-7-(2-(4-methylpiperazin-1-yl)ethoxy)imidazo[1,2-a]pyridine-3-carboxamide]", "values": [{"measurement": "average maximum increase in CSF-1 levels from baseline, 300 mg versus 400 mg cohorts", "setting": "[1]; 300 mg vs 400 mg cohorts", "result": "similar"}, {"measurement": "average maximum increase in CSF-1 levels from baseline", "setting": "[1]; ARRY-382 300 mg QD with pembrolizumab", "result": 5.4, "unit": "fold"}, {"measurement": "relation of increases from baseline in CSF-1 levels to ARRY-382 exposure", "setting": "[1]; Part A", "result": "correlated with increasing ARRY-382 exposure"}, {"measurement": "doses with biological activity", "setting": "[2]; QD", "result": "greater than or equal to 200 mg"}, {"measurement": "maximum tolerated dose (MTD)", "setting": "[2]; once daily (QD)", "result": 400, "unit": "mg"}, {"measurement": "dose-limiting toxicities in the 200 mg cohort", "setting": "[3]; ARRY-382 200 mg QD + pembrolizumab, six patients", "result": "No DTLs occurred; also recorded: No DLTs occurred"}, {"measurement": "patients who discontinued because of an AE of pneumonitis", "setting": "[3]; ARRY-382 200 mg cohort, onset in cycle 4", "result": "One"}, {"measurement": "patients with dose reductions in the 300 mg cohort", "setting": "[3]; ARRY-382 300 mg cohort", "result": 3, "unit": "patients"}, {"measurement": "patients who experienced a DLT in the 400 mg cohort", "setting": "[3]; ARRY-382 400 mg QD + pembrolizumab", "result": "2 of 7 and Two of seven"}, {"measurement": "course of AST and CK elevations after interruption of ARRY-382", "setting": "[3]; Part A", "result": "resolved in all patients; also recorded: reversible"}, {"measurement": "grade 4 events of increased blood CK", "setting": "[3]; Part A", "result": "one"}, {"measurement": "patients with AST elevation who required dose reduction", "setting": "[3]; Part A", "result": 2, "unit": "patients"}, {"measurement": "patients with CK elevation who required dose reduction", "setting": "[3]; Part A", "result": 3, "unit": "patients"}, {"measurement": "patients with immune-related adverse events (investigator-classified)", "setting": "[3]; Part A", "result": 5, "unit": "patients"}, {"measurement": "most common adverse events of any grade", "setting": "[3]; Part A, 19 patients, ARRY-382 + pembrolizumab", "result": "increased laboratory values (AST, CK, ALT, alkaline phosphatase (ALP), lipase, amylase), fatigue, pyrexia, and nausea"}, {"measurement": "most common grade 3/4 events (>10%)", "setting": "[3]; [6]", "result": "increased AST, increased CK, rash, lipase increased, increased ALP, increased ALT, and anemia"}, {"measurement": "patients with grade 3 AST elevation", "setting": "[3]; [6]", "result": 5, "unit": "patients"}, {"measurement": "on-study deaths (on treatment or within 30 days of last dose)", "setting": "[3]; Part A, cause disease progression in all cases", "result": 3}, {"measurement": "recommended phase 2 dose (RP2D)", "setting": "[3]; QD continuously, in combination with pembrolizumab 2 mg/kg IV every 3 weeks", "result": 300, "unit": "mg"}, {"measurement": "immune-related adverse events, manageability", "setting": "[3]; regardless of relationship to study drug", "result": "observed and were manageable"}, {"measurement": "exposure in the 300 mg versus 400 mg dose cohorts", "setting": "[4]; 300 mg vs 400 mg QD", "result": "similar"}, {"measurement": "dose proportionality of ARRY-382 exposure", "setting": "[4]; 200, 300, 400 mg QD with pembrolizumab", "result": "generally dose-proportional"}, {"measurement": "PK interactions between ARRY-382 and pembrolizumab", "setting": "[4]; patients, Part A", "result": "no evidence of any PK interactions"}, {"measurement": "patients with stable disease per irRC", "setting": "[5]", "result": 3, "unit": "patients"}, {"measurement": "stable disease per RECIST version 1.1, share of patients", "setting": "[5]", "result": 33, "unit": "%"}, {"measurement": "stable disease per irRC, share of patients", "setting": "[5]", "result": 50, "unit": "%"}]}
